In ChEMBL document CHEMBL5104149, “Monoterpene substituted thiazolidin-4-ones as novel TDP1 inhibitors: Synthesis, biological evaluation and docking” (Bioorg Med Chem Lett, 2022):
The source made the active and inactive calls. The rule behind the calls is not given here.

Experiments:
[1] = biological target: Tyrosyl-DNA phosphodiesterase 1 (Homo sapiens, UniProt Q9NUW8); assay: Inhibition of recombinant human TDP1 measured by real-time oligonucleotide biosensor assay
[2] = tested on: HeLa; assay: Cytotoxicity against human HeLa cells at 10 uM in presence of 2 to 16 uM topotecan; type: functional, cell-based
[3] = Cytotoxicity against human HeLa cells; type: toxicity, cell-based
[4] = Cytotoxicity against human HEK293-A cells; type: toxicity, cell-based
[5] = tested on: HeLa; assay: Synergistic cytotoxicity against human HeLa cells assessed as combination index at 20 uM in presence of 5 uM topotecan; type: functional
[6] = tested on: HeLa; assay: Synergistic cytotoxicity against human HeLa cells assessed as combination index at 5 uM in presence of 5 uM topotecan; type: functional

Chain of Tyrosyl-DNA phosphodiesterase 1 (Q9NUW8 whole entry): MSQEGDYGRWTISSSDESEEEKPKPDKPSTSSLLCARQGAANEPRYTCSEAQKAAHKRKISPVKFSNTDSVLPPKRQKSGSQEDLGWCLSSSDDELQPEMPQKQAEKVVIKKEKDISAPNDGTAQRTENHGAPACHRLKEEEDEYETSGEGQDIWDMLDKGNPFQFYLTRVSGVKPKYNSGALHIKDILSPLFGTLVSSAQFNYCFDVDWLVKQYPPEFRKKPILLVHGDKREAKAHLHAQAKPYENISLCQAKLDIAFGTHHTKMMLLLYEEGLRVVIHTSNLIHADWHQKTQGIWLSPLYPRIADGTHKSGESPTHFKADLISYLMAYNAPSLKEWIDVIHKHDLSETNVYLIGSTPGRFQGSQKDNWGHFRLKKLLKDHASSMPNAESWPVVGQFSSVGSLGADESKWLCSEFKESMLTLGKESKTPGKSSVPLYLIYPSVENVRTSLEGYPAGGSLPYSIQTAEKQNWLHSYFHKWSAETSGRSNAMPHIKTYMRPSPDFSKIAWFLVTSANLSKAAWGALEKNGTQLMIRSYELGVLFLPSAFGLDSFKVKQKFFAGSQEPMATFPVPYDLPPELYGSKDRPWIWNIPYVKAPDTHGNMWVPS

IC50 [1] [µM]	Compound	Activity [2]	CC50 [3] [µM]	CC50 [4] [µM]	CI [5]	CI [6]
> 100	CC(C)=CCCC(C)CCOc1ccc(C2SCC(=O)N2Cc2ccccc2)cc1 (stereo not drawn)	–	–	–	–	–
0.016	CC(=O)C1=C(O)C=C2Oc3c(-c4csc(N/N=C/CC(C)CCC=C(C)C)n4)c(O)c(C)c(O)c3[C@@]2(C)C1=O (stereo partly drawn)	–	–	–	–	–
2.1	CC1(C)C2CC=C(CCOc3ccc(C4SCC(=O)N4Cc4ccccc4)cc3)C1C2 (stereo not drawn)	Active	> 100	> 100	0.21	0.32
> 100	CC1(C)C2CC=C(CC3SCC(=O)N3Cc3ccccc3)C1C2 (stereo not drawn)	–	–	–	–	–
1.2	CC1=CC[C@@H](CCOc2ccc(C3SCC(=O)N3Cc3ccccc3)cc2)C1(C)C (stereo partly drawn)	Active	79	90	0.16	0.25
> 100	CC(C)CCCC(C)CC1SCC(=O)N1Cc1ccccc1 (stereo not drawn)	–	–	–	–	–

More lines, now with the values behind:

Compound	IC50 [1] [µM]	Activity [2]	CC50 [3] [µM]	CC50 [4] [µM]	CI [5]	CI [6]
CC(C)=CCC/C(C)=C/COc1ccc(C2SCC(=O)N2Cc2ccccc2)cc1 (stereo not drawn)	2.9	Active	> 100	> 100	0.13	–
COc1cnc2c(c1)C(=O)c1c-2n(CCCNC2=NCCS2)c(=O)c2cc([N+](=O)[O-])ccc12	12	–	–	–	–	–
CC(C)=CCCC(C)CC1SCC(=O)N1Cc1ccccc1 (stereo not drawn)	> 100	–	–	–	–	–
O=C1CSC(c2ccccc2)N1Cc1ccccc1 (stereo not drawn)	> 100	–	–	–	–	–
CC1(C)C2CC=C(COc3ccc(C4SCC(=O)N4Cc4ccccc4)cc3)C1C2 (stereo not drawn)	1.6	Active	74	51	0.21	–
CC(C)CCCC(C)CCOc1ccc(C2SCC(=O)N2Cc2ccccc2)cc1 (stereo not drawn)	1.2	Active	66	> 100	0.29	0.51
CC1(C)C2CC=C(C3SCC(=O)N3Cc3ccccc3)C1C2 (stereo not drawn)	> 100	–	–	–	–	–
COc1ccc(C2SCC(=O)N2Cc2ccccc2)cc1 (stereo not drawn)	> 100	–	–	–	–	–
CC1=CC[C@@H](CC2SCC(=O)N2Cc2ccccc2)C1(C)C (stereo partly drawn)	> 100	–	–	–	–	–
